Data from the NIST ThermoML archive (doi:10.1021/je300170y).
Numbers after ± are expanded uncertainties.

Conditions: Crystal 1; Chromatography

Row | Normal melting temperature [°C] | Compound
1 | 206.00 | O=C(O)[C@H](O)[C@@H](O)C(=O)O (relative stereo) [(R*,R*)-2,3-dihydroxybutanedioic acid]
2 | 170.20 ± 1 | O=C(O)[C@H](O)[C@@H](O)C(=O)O [(2R,3R)-2,3-dihydroxybutanedioic acid]
